Test results: ChEMBL document CHEMBL3297673, “Antifungal amphidinol 18 and its 7-sulfate derivative from the marine dinoflagellate Amphidinium carterae” (J Nat Prod, 2014)
Values after ≈ are worked out from the molar mass of the structure shown. Active and inactive are the calls of the source. No cut-off for these calls is given here.

Experiments:
Candida albicans = experiment: Antifungal activity against Candida albicans after 48 hrs by broth microdilution method; type: functional
[1] = Toxicity in erythrocytes (unknown origin) assessed as hemolytic activity; type: cell-based; details: erythrocyte

Compound	MIC (Candida albicans) [µg/mL]	Activity [1]	Activity (Candida albicans)
C=C/C=C/CC/C=C/C=C/C=C/CC/C=C/[C@H](O)[C@H](O)[C@@H]1O[C@@H]([C@H](O)[C@H](O)C(=C)CC[C@@H](O)[C@H]2C[C@@H](O)[C@@H](O)[C@H]([C@@H](O)[C@H](O)/C=C(\C)CCC(O)CC(O)C(O)C(C)CC(O)C(O)CC(C)CCC(O)CC(=O)CC(O)CCCC(O)CCCCC(O)CO)O2)C[C@@H](O)[C@H]1O (some centres undefined)	9 (≈ 6.62 µM)	Toxic	
C=C/C=C/CC/C=C/C=C/C=C/CC/C=C/[C@H](O)[C@H](O)[C@@H]1O[C@@H]([C@H](O)[C@H](O)C(=C)CC[C@@H](O)[C@H]2C[C@@H](O)[C@@H](O)[C@H]([C@@H](O)[C@H](O)/C=C(\C)CCC(O)CC(O)C(O)C(C)CC(O)C(O)CC(C)CCC(O)CC(=O)CC(O)CCCC(CCCCC(O)CO)OS(=O)(=O)[O-])O2)C[C@@H](O)[C@H]1O.[Na+] (some centres undefined)		Toxic	inactive
